Values quoted from earlier work as cited in patent US7452858B2, “Treatment of gestational diabetes” (Amylin Pharmaceuticals, Inc., priority 1999, dated 2008).
Where two headings read alike, the source gives them in different places. Where no end group is shown, it is not given here.

Tests used:
[1] = mice, peripheral injection
[2] = rats, intracerebroventricular injection
cloned GLP-1 receptor = settings: transfected cells

Row | Substance | effect on food intake [1] | effect on food intake [2] | action at the cloned GLP-1 receptor (cAMP) (cloned GLP-1 receptor)
1 | GLP-1 [7-36]NH2 (HAEGTFTSDVSSYLEGQAAKEFIAWLVKGR-NH2) | does not inhibit food intake | inhibits food intake | –
2 | exendin[9-39]: C-terminally truncated exendin peptide, a carboxyamidated molecule, reported antagonist of GLP-1 | – | – | antagonist
